Assay results published in patent US20250352679A1, “IN-SITU STE[…] VAPOR PHASE DEPOSITION” (Applied Materials, Inc., priority 2024, published 2025).

Tested on: bioburden of powdered lactose
Test: Bioburden testing (US Pharmacopeia 61, colony count) of lactose powder after ozone sterilization in the reactor chamber
Type: cell-based
Settings: 50 g lactose powder, 5 hrs, 35° C., 10 rpm, 0 ppm control 1800 CFU/ml
Experimental: (§1) Briefly, 50 grams of lactose powder was loaded into the reactor chamber. The chamber was evacuated to reach a pressure of 0.008 Torr and then 0.01 Torr. Then the chamber was filled with ozone at 25 sccm to 2 ppm, 10 ppm or 20 ppm. The ozone was kept in the chamber for 5 hrs. The reaction was held at 35° C. and the reactor chamber was rotated at 10 rpm. At the end of the 5 hour incubation time, the chamber was evacuated to reach a pressure of 0.01 Torr and purged with nitrogen. The lactose was then tested using US Pharmacopeia 61 testing. Briefly, the samples were incubated in petri-dishes and counted for colony forming units (cfu).
as §1, with “ppm. Water vapor was also added at an ozone/water ratio of 1:10.” for “ppm.”, “test” for “tested”, “testing.” for “testing. Briefly, the samples were incubated in petri-dishes and counted for colony forming units (cfu).”

O=[O+][O-] [Dry ozone, ozone]
Bioburden (ozone concentration 2 ppm): 500 CFU/ml | Bioburden (ozone concentration 10 ppm): 50 CFU/ml | Bioburden (ozone concentration 20 ppm): <1 CFU/ml
